According to publication PMC12172326 (Journal of Biomedical Science, 2025):

Experiments:
SALL4 = SALL4 degradation, Western blot in Tera-1 cells; format: cell-based, human; conditions: 4 h, 0.1 to 10 μM, SALL4/GAPDH, read-out: IC50 to lower SALL4 protein expression
Description: (§1) This cell line was obtained from the Korean Cell Line Bank (catalog no. 30105; Seoul, Korea), grown in DMEM (supplemented with 10% FBS, penicillin 100 U/mL and streptomycin 100 μg/mL, and maintained at 37 °C and 5% CO2). […] These were grown in RPMI media supplemented with 10% FBS, penicillin 100 U/mL, and streptomycin […], and maintained at 37 °C and 5% CO2. MM.1S cells were treated with drug (0.1 to 10 μM) for 4 h, and their cell lysates were prepared for Western blot analysis, as described previously.
(§2) For Western blot analysis, total proteins were extracted using RIPA buffer (Thermo Fisher Scientific, Waltham, MA) containing Halt Protease Inhibitor Cocktail (Thermo Fisher Scientific). Thereafter, proteins were separated by gel electrophoresis and then transferred to polyvinylidene difluoride (PVDF) membranes (Thermo Fisher Scientific), as detailed previously. The following primary antibodies were used: (i) anti-SALL4 antibody (catalog no. ab29112; 1:1000; Abcam, UK); (ii) anti-Aiolos antibody (catalog no. 15103; 1:1000; Cell Signaling Technology, Danvers, MA, USA); and (iii) anti-GAPDH antibody (catalog no. ab8245; 1:5000; Abcam, Cambridge, UK). […] Antigen–antibody complexes were detected using enhanced chemiluminescence (Thermo Fisher Scientific, iBright CL1500).

Aiolos = Aiolos degradation, Western blot in MM.1S cells; format: cell-based, human; conditions: 4 h, 0.1 to 10 μM, Aiolos/GAPDH, read-out: IC50 to lower Aiolos protein expression
Description: as §1, §2

p-glycoprotein = test system: p-glycoprotein; set-up: method as in PMID 21825263; conditions: cited from earlier work
[1] = cited from earlier work
[2] = ex vivo stability in mouse plasma; format: in vitro ADME; conditions: 100 μg/ml, room temperature, 0-180 min
Description: (§3) An ex vivo evaluation of drug stability was conducted in mouse and human plasma samples (WuXi AppTec, Shanghai, China). […] Samples were, thereafter, incubated at room temperature for 0, 15, 30, 60, 120, and 180 min before immediate drug extraction. […] Extraction was performed by adding ethyl acetate containing the internal standard (donepezil—known to undergo first-pass hepatic metabolism) to the spiked sample (100 μL), vortexed for 1 min, and centrifuged at 13,000 rpm, 4 °C for 10 min. The supernatant was used for LC–MS/MS analysis.
(§4) LC–MS/MS analysis was performed with a Vanquish Flex UHPLC (Thermo Scientific) and a Orbitrap Exploris 240 mass spectrometer (Thermo Scientific). Samples were separated on a C18 UHPLC column (100 mm × 2.1 mm, 3 μm; Thermo Scientific). The mobile phase A for LC separation was 0.1% formic acid and the mobile phase B was 0.1% formic acid in methanol. The chromatography gradient was designed for a linear increase from 5% B in 1 min, 5% B to 95% B in 8 min, 95% B in 3 min, and 5% B in 3 min. The flow rate was maintained at 0.3 mL/min. Mass spectra were acquired using the data-dependent Top 4 MS2 (ddMS2) method with a mass scan (100–1000 m/z) and 120,000 MS resolution.

[3] = ex vivo stability in human plasma; format: in vitro ADME; conditions: 100 μg/ml, room temperature, 0-180 min
Description: as §3, §4

Molecule `Nc1cccc2c1C(=O)N(C1CCC(=O)NC1=O)C2=O` (stereo not drawn) [Pom, Pomalidomide] has an IC50 (SALL4) of 40 nM and an IC50 (Aiolos) of 60 nM.
In the case of `Nc1cccc2c1CN(C1CCC(=O)NC1=O)C2=O` (stereo not drawn) [Lenalidomide], the “substrate for the efflux transporter p-glycoprotein” value (p-glycoprotein) is listed as “substrate” and the CSF/plasma ratio [1] is listed as 0.11.
In the case of `Nc1cccc2c1C(=S)N(C1CCC(=S)NC1=O)C2=O` (stereo not drawn) [3,6′-DTP, 3,6′-dithiopomalidomide, reference compound], the “ex vivo stability in mouse plasma” value [2] is reported as “rapidly disappears” and the “ex vivo stability in human plasma” value [3] is reported as “rapidly disappears”.
